Data on 30 compounds can be found in patent US5098613A, “Anti-inflammatory agents” (Eli Lilly and Company, priority 1990, dated 1992).

The inhibition is the relative decrease from the control value, in per cent.

Each structure is given as a SMILES string. Where a name gives a salt, the structure may show the parent alone.

This experiment deals with T1, leukotriene B4 specific receptor on the membrane of human neutrophils (Homo sapiens, UniProt Q15722).
T1 construct: incubating neutrophils (1×10^7 cells) with 0.1-0.2 nM ^3 H-LTB4; endogenous in cells; host or cells: human peripheral blood neutrophils (buffy coats of two blood donors)
Put plainly: Inhibition of Binding of ^3 H-LTB4 to Peripheral Human Neutrophils. Conditions: 4° C., 10 minutes; for inhibition at 10 µM: drug concentration 10^-5 M, read-out: LTB4 Binding Inhibition; for inhibition at 1 µM: drug concentration 10^-6 M; for inhibition at 0.1 µM: drug concentration 10^-7 M. Here is the method: The effectiveness of compounds to inhibit the binding of leukotriene B4 to a specific receptor on the membrane of human neutrophils was measured by using an adaptation of a radio-ligand binding assay developed by Goldman and Goetzl, J. Immunol., 129, 1600 (1982). Other investigators have developed similar assays (see, e.g., Kreisle, et al., J. Exp. Med., 157, 628 (1983) and Lin, et al., Prostaglandins, 28, 837 (1984)).
Cells used in the assay were isolated by standard techniques of centrifugation on Ficol-Hypaque, dextran 70 sedimentation and hypotonic lysis. The following procedure was used. Freshly-prepared buffy coat layers from two individuals were obtained from a local blood donor center. The cells were mixed and diluted to 484 ml. with phosphate buffered saline containing heparin (10 units/ml) and heat-inactivated calf serum (5%). This was divided into 20 ml. aliquots and the aliquots layered on top of Ficoll-Paque (12 ml.). The material was then centrifuged at 500 g. for 40 minutes at room temperature. The resulting upper layer of platelets and mononuclear cells was discarded. The lower layer containing erythrocytes and neutrophils was retained. Buffer was added (1 ml. per 4 ml. of lower layer) and the suspension mixed. For each milliliter of this mixture, 0.33 ml. of 6% Macrodex was added. After stirring, the cels were allowed to sediment for 1 hour at 37° C. The resulting erythrocyte pellet was discarded and the neutrophil enriched supernatant fluid centrifuged at 500 g. for 10 minutes at 4° C. Erythrocytes still present in this cell pellet were lysed by incubating the cells with 5-8 ml. ice-cold distilled water for 30-45 seconds. Subsequently, the volume was made up to 50 ml. by addition of ice-cold buffer and the cells resuspended. The suspension was then centrifuged at 300 g. for 10 minutes at 4° C. The cells were finally resuspended at a cell density of 2×10^7 cells/ml in the assay buffer. This buffer Consisted of Hanks' balanced salt solution and 0.1% ovalbumin (pH 7.3).
The radio-ligand binding assay was conducted by incubating neutrophils (1×10^7 cells) with 0.1-0.2 nM ^3 H-LTB4 (sp. act. 150-220 Curies/mmol) and test compound (1×10^-5 M and 1×10^-6 M) for 10 minutes at 4° C. The amount of bound ^3 H-LTB4 was then measured and compared with the amount bound in the absence of test compound. The assay was carried out in microcentrifuge tubes by adding first 10 μl test compound dissolved in DMSO, followed by adding 20 μl ^3 H-LTB4 diluted in assay buffer, and finally adding 500 μl of the cell suspension pension. At the end of the 10 minutes incubation, 300 μl of a mixture of dibutyl and dinonyl phthalate (7:2) were added and the tubes centrifuged for 2 minutes in a microcentrifuge. The radioactivity bound to the cell pellet was measured by scintillation spectroscopy. Appropriate corrections for nonspecific bonding of ^3 H-LTB4 were made.

T1 sequence (Q15722 whole entry): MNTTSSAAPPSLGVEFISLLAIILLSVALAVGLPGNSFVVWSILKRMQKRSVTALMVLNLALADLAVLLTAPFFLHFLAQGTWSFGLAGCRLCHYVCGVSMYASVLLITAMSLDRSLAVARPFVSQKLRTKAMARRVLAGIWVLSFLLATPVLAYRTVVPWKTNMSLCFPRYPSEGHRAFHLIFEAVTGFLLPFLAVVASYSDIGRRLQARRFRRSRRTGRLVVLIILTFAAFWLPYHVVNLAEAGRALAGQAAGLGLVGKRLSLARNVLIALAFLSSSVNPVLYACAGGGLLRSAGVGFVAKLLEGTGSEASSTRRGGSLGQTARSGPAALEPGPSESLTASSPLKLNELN

For the compound `CCc1cc(C(C)=O)c(O)cc1OCc1cccc(C(=O)O)c1` [Example 84], the inhibition at 10 µM worked out at 81% and the inhibition at 1 µM worked out at 28%.

`C=CCc1cc(C(C)=O)c(O)cc1OCCCCC` [Example 41, 4-Pentyloxy-2-hydroxy-5-allylaceto-phenone]: the inhibition at 10 µM is 59% and the inhibition at 1 µM came to 22%.

In the case of `CCc1cc(C(C)=O)c(O)cc1OCCCCCn1cncn1` [Example 146], the inhibition at 10 µM is 81% and at 1 µM the inhibition was 29%.

Regarding `CCc1cc(C(C)=O)c(O)cc1OCCCCCCC(=O)O` [Example 85, 7-(4-Acetyl-2-ethyl-5-hydroxyphenoxy)heptanoio acid], the inhibition at 10 µM was 86% and 1 µM produced 37% inhibition.

Regarding `CCc1cc(C(C)=O)c(O)cc1OCCCC(C)(C)C(N)=O` [Example 135, 5-(4-Acetyl-2-ethyl-5-hydroxyphenoxy)-2,2-dimethylpentamide], the inhibition at 10 µM amounted to 95% and the inhibition at 1 µM was determined as 55%.

On to `CCc1cc(C(C)=O)c(O)cc1OCCCCCNC(C)=O` [Example 138, N-[5-(4-Acetyl-2-ethyl-5-hydroxyphenoxy)-pentyl]acetamide], for which the inhibition at 10 µM was 98% and at 1 µM the inhibition was 58%.

For the compound `C#CCCCCOc1cc(O)c(C(C)=O)cc1CC=C` [Example 57, 4-(5-Hexynyloxy)-2-hydroxy-5-allylaceto-phenone], the inhibition at 10 µM is 73% and 1 µM produced 29% inhibition.

On to `C=CCc1cc(C(C)=O)c(O)cc1OCCCCCC(C)(C)O` [Example 103, 2-Hydroxy-4-(6-hydroxy-6-methylheptyloxy)-5-allylacetophenone], for which the inhibition at 10 µM worked out at 97% and 1 µM produced 59% inhibition.

With `CSCc1cc(C(C)=O)c(O)cc1OCCCCCCC#N` [Example 128, 7-[4-Acetyl-5-hydroxy-2-(methylthiomethyl)-phenoxy]heptanenitrile], the inhibition at 10 µM was 97% and at 1 µM the inhibition was 64%.

`CCc1cc(C(C)=O)c(O)cc1OCCCCCCSC` [Example 81, 2-Hydroxy-4-[6-(methylthio)hexyloxy]-5-ethylacetophenone]: the inhibition at 10 µM is 71 to 94% and the inhibition at 1 µM was in the range of 14 to 59%.

In the case of `C=CCc1cc(C(C)=O)c(O)cc1OCCCCCCC` [Example 37, 4-(Heptyloxy)-2-hydroxy-5-allylacetophenone], the inhibition at 10 µM was found to be 31% and the inhibition at 1 µM stood at 8%.

On to `C=CCCOc1cc(O)c(C(C)=O)cc1CC=C` [Example 45, 4-(3-Butenyloxy)-2-hydroxy-5-allylacetophenone], for which the inhibition at 10 µM worked out at 51% and the inhibition at 1 µM stood at 15%.

With `C=CCc1cc(C(C)=O)c(O)cc1OCCCCCC(=O)O` [Example 86, 6-(4-Acetyl-2-allyl-5-hydroxyphenoxy)hexanoic acid], the inhibition at 10 µM worked out at 73% and the inhibition at 1 µM was found to be 23%.

With `CCc1cc(C(C)=O)c(O)cc1OCCCCCCCC(C)(C)C(=O)N(C)O` [Example 150, N-Methyl-N-hydroxy-9-(4-acetyl-2-ethyl-5-hydroxyphenoxy)-2,2-dimethylnonanamide], the inhibition at 10 µM was 90% and testing at 1 µM gave an inhibition of 59%.

Regarding `CCc1cc(C(C)=NO)c(O)cc1OCCCCCC(C)(C)C(=O)O` [Example 152, 7-{4-[-(Hydroxyimino)ethyl]-2-ethyl-5-hydroxyphenoxy}-2,2-dimethylheptanoicacid], at 1 µM the inhibition was 41% and at 0.1 µM the inhibition was 3%.

In the case of `C=CCc1cc(C(C)=O)c(O)cc1OCCCCCC[S+](C)[O-]` (stereo not shown) [Example 79, 2-Hydroxy-4-[6-(methylsulfinyl)hexyloxy]-5-allylacetophenone], the inhibition at 10 µM was found to be 96% and the inhibition at 1 µM is 51%.

For `C=CCc1cc(C(C)=O)c(O)cc1OCCCCCC#N` [Example 21, 6-(4-Acetyl-5-hydroxy-2-allylphenoxy)-hexanenitrile], the inhibition at 10 µM came out at 81% and the inhibition at 1 µM worked out at 32%.

Take `C=CCc1cc(C(C)=O)c(O)cc1OCCCCCC(N)=O` [Example 96, 6-(4-Acetyl-5-hydroxy-2-allylphenoxy)hexanamide]: the inhibition at 10 µM turned out to be 87% and testing at 1 µM gave an inhibition of 37%.

As for `C=CCc1cc(C(C)=O)c(O)cc1OCCCCCC(C)=O` [Example 102], the inhibition at 10 µM was 97% and the inhibition at 1 µM came out at 57%.

On to `C=CCc1cc(C(C)=O)c(O)cc1OCCCCCCCCCCC#N` [Example 70, 11-(4-Acetal-5-hydroxy-2-allylphenoxy)-undecanenitrile], for which the inhibition at 10 µM turned out to be 50% and at 1 µM the inhibition was 14%.

`C=CCc1cc(C(C)=O)c(O)cc1OCCCCCCCC#N` [Example 69, 8-(4-Acetyl-5-hydroxy-2-allylphenoxy)octanenitrile]: the inhibition at 10 µM turned out to be 88% and the inhibition at 1 µM is 51%.

Consider `CCCCCCc1cc(C(C)=O)c(O)cc1OCCCCC#N` [Example 29, 5-(4-Acetyl-2-hexyl-5-hydroxyphenoxy)-pentanenitrile], for which the inhibition at 10 µM worked out at 51% and the inhibition at 1 µM came out at 12%.

Take `C=CCc1cc(C(C)=O)c(O)cc1OCCCCN1CCOCC1` [Example 75, 2-Hydroxy-4-[4-(4-morpholino)butoxy]-5-allylacetophenone hydrochloride]: the inhibition at 10 µM was 0% and the inhibition at 1 µM is 0%.

On to `CCc1cc(C(C)=O)c(O)cc1OCCCCc1nnn(CC(=O)O)n1` [Example 143, 5-[4-(4-Acetyl-2ethyl-5-hydroxyphenoxy)-butyl]-2H-tetrazole-2-acetic acid], for which the inhibition at 10 µM is 69% and at 1 µM the inhibition was 27%.

On to `C=CCc1cc(C(C)=O)c(O)cc1OCC#N` [Example 25, (4-Acetyl-5-hydroxy-2-allylphenoxy)-acetonitrile], for which the inhibition at 10 µM worked out at 19% and the inhibition at 1 µM stood at 2%.

Consider `C=CCCCCOc1cc(O)c(C(C)=O)cc1CC=C` [Example 46, 4-(5-Hexenyloxy)-2-hydroxy-5-allylacetophenone], for which the inhibition at 10 µM came out at 72% and the inhibition at 1 µM came to 26%.

For the compound `CCc1cc(C(C)=O)c(O)cc1OCCCC(C)(C)C(=O)O` [Example 134, 5-(4-Acetyl-2ethyl-5-hydroxyphenoxy)-2,2-dimethylpentanoic acid], the inhibition at 10 µM amounted to 93% and testing at 1 µM gave an inhibition of 45%.

Take `C=CCc1cc(C(=O)CCCC(=O)O)c(O)cc1OCCCCC#N` [Example 106, 5-[4-(4-Cyanobutoxy)-2-hydroxy-5-allylphenyl)-5-oxopentanoic acid]: the inhibition at 10 µM amounted to 9% and testing at 1 µM gave an inhibition of 1%.

In the case of `CCc1cc(C(C)=O)c(O)cc1OCCCCCC(C)(C)C(=O)N(C)O` [Example 149, 7-(4-Acetyl-2-ethyl-5-hydroxyphenoxy)-N-hydorxy-N,2,2-trimethylheptanamide], the inhibition at 10 µM turned out to be 97%, the inhibition at 1 µM is 65% and testing at 0.1 µM gave an inhibition of 6%.

As to `C=CCc1cc(C(=O)c2ccccc2)c(O)cc1OCCCCC#N` [Example 104, 5-(4-Benzoyl-5-hydroxy-2-allylphenoxy)pentanenitrile], the inhibition at 10 µM was 32% and the inhibition at 1 µM was found to be 5%.
